This is an account of results in article PMC5937995 (Bioorganic & medicinal chemistry, 2018).

Residues, ends and D or L forms follow the SMILES beside them.

Data set [1] deals with T1, PAR1 (Homo sapiens, UniProt P25116).
T1 sequence (P25116 22-425): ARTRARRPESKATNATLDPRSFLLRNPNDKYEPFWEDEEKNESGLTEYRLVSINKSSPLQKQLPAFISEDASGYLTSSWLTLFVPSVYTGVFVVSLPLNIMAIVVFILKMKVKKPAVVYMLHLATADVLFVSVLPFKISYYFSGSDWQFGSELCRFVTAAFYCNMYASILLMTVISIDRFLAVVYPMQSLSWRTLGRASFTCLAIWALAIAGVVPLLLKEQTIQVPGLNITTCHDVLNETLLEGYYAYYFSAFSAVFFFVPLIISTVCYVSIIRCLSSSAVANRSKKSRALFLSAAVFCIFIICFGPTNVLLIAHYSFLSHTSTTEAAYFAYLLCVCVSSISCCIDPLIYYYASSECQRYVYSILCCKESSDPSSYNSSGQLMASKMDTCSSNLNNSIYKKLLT
The data set can be described thus: PAR1.

For the next data set, the system named is human platelets. The following applies: cited from earlier work; for IC50: read-out: potency in P-selectin assay, human platelets.
The conditions of data set [2]: cited from earlier work.
The test system of data set [3] is PAR1. The following applies: platelet membranes; cited from earlier work.
Another data set in a line: Aqueous solubility. Format: physicochemical. The following applies: turbid suspensions observed at high concentrations.
In another data set the test system is cardiac infarct size. As to conditions: murine myocardial ischemia-reperfusion injury; cited from earlier work.
Data set [4] relates to PAR1. As to conditions: cited from earlier work.
Setting [5] is: 5 μM TFLLRN-NH2, EA.hy926 cells.

Regarding `CC(C)CC(=O)Nc1cccc(NC(=O)c2ccccc2Br)c1` [CJD-125], the “activity in PAR1 iCa2+ assay (in words)” value at PAR1 [1] (setting [5]) is “less potent than ML161 and did not give a good concentration-response”. Moreover, the “potency relative to ML161 in platelet P-selectin assay” value with human platelets is “equipotency”. Further, the “plasma stability relative to ML161” value in data set [2] is “improved plasma stability”. Take `CCCC(=O)Nc1cccc(NC(=O)c2ccccc2N=[N+]=[N-])c1` [DG-5, 2-Azido-N-(3-butyramidophenyl)benzamide]: on PAR1 [1] (setting [5]), the “activity in PAR1 iCa2+ assay (in words)” value is on record as “only modest activity”. On to `C#CCCC(=O)NCC[C@H](NC(=O)[C@H](Cc1ccc(F)c(F)c1)NC(=O)Nc1ccc2c(CN3CCCC3)nn(Cc3c(Cl)cccc3Cl)c2c1)C(=O)NCc1ccccc1` [DG-207, N-((S)-4-(Benzylamino)-3-((S)-2-(3-(1-(2,6-dichlorobenzyl)-3-(pyrrolidin-1-ylmethyl)-1H-indazol-6-yl)ureido)-3-(3,4-difluorophenyl)propanamido)-4-oxobutyl)pent-4-ynamide], for which, on PAR1 [1] (setting [5]), the “fold less potent than RWJ-58259” value is on record as 15 fold. As for `CCCCC(=O)Nc1cccc(NC(=O)c2ccccc2Br)c1` [EMG-23, 2-Bromo-N-(3-pentanamidophenyl)benzamide], the “activity in PAR1 iCa2+ assay (in words)” value on PAR1 [1] (setting [5]) was “poorly active”. Consider `CCCC(=O)Nc1cccc(NC(=O)c2ccccc2Br)c1` [ML161], for which the “inhibition of [3H]TRAP binding” value in the data set with PAR1 [3] is recorded as “does not significantly inhibit binding”. Also, the “mode of inhibition of SFLLRN-NH2” value with human platelets (platelet P-selectin assay) was “non-competitive inhibitor”. For the same molecule, the IC50 in the data set on human platelets is 260 nM. The aqueous solubility result in the data set “Aqueous solubility” was “low aqueous solubility”. Also, the cardiac infarct size entry in the data set on cardiac infarct size is reported as “significantly decreased”.

As for `C#CCCC(=O)Nc1cccc(NC(=O)c2ccccc2Br)c1` [RR-10, 2-Bromo-N-(3-(pent-4-ynamido)phenyl)benzamide], at PAR1 [1] (setting [5]), the “activity in PAR1 iCa2+ assay (in words)” value was “only modest inhibition of PAR1”. For the molecule `CCCCNc1cccc(NC(=O)c2ccccc2Br)c1` [RR-90], the IC50 in the data set with human platelets was 340 nM. For `NCC[C@H](NC(=O)[C@H](Cc1ccc(F)c(F)c1)NC(=O)Nc1ccc2c(CN3CCCC3)cn(Cc3c(Cl)cccc3Cl)c2c1)C(=O)NCc1ccccc1` [RWJ-56110], in the data set on PAR1 [4], the “mode of inhibition of radiolabeled PAR1 activating peptide binding” value was “competitive inhibitor”. In the case of `CC(C)C[C@H](NC(=O)[C@H](CC(C)C)NC(=O)[C@H](Cc1ccccc1)NC(=O)[C@@H](N)[C@@H](C)O)C(=O)N[C@@H](CCCNC(=N)N)C(=O)N[C@@H](CC(N)=O)C(N)=O` [TFLLRN-NH2, reference compound] (H-TFLLRN-NH2), it took 4800 nM to reach a half-maximal effect on PAR1 [1] (EC50). In turn, `CCOC(=O)N[C@@H]1CC[C@@H]2[C@@H](C1)C[C@H]1C(=O)O[C@H](C)[C@H]1[C@H]2/C=C/c1ccc(-c2cccc(F)c2)cn1` [Vorapaxar, reference compound] gave an IC50 at PAR1 [1] of 32 nM. Moreover, at PAR1 [1] (in presence of 5 μM TFLLRN-NH2, EA.hy926 cells), the “% Inhibition” value is on record as 95%. In the data set “Aqueous solubility”, the aqueous solubility result is given as “low aqueous solubility”.
